# Numbered stars: 1 amine (or outer) side, 2 acyl side, 3 side chain; on linkers, the order of the positions; unused ones are H or OH. Bridge positions count the residues as written; N and C are the ends. Square brackets hold non-standard residues; d marks the D form. Side chains are listed from the residue outwards. Peptide text beside a SMILES is read from it. * marks the point of attachment. Propanoyl(3-(4-Cl-Ph)) = O=C(CCc1ccc(Cl)cc1)*; Pyrazinoyl(5-oxo-4H) = O=C(c1c[nH]c(=O)cn1)*; Benzoyl(3,5-diOMe) = COc1cc(OC)cc(C(=O)*)c1; Isoxazole3carbonyl(5-Me) = Cc1cc(C(=O)*)no1; 1,2,3Thiadiazole5CO(4-Me) = Cc1nnsc1C(=O)*; Benzoyl(3-CF3) = O=C(c1cccc(C(F)(F)F)c1)*; Tetrahydropyran4carbonyl = O=C(C1CCOCC1)*; Phenylacetyl(4-Cl) = O=C(Cc1ccc(Cl)cc1)*; Isoorotoyl = O=C(c1c[nH]c(=O)[nH]c1=O)*; Nicotinoyl(6-OMe) = COc1ccc(C(=O)*)cn1; X11 = O=C(c1cccc(S(F)(F)(F)(F)F)c1)*; 2Thenoyl(5-Cl) = O=C(c1ccc(Cl)s1)*; Benzoyl(3-Cl) = O=C(c1cccc(Cl)c1)*; Benzoyl(4-Cl) = O=C(c1ccc(Cl)cc1)*; Morpholinoacetyl = O=C(CN1CCOCC1)*; Benzoyl(3-OH) = O=C(c1cccc(O)c1)*; Pyrazinecarbonyl = O=C(c1cnccn1)*; Phenoxyacetyl = O=C(COc1ccccc1)*; Pentanoyl(4-Me) = CC(C)CCC(=O)*; X5 = O=C(c1cc2cc(Cl)ccc2[nH]1)*; Cysteamide = C(CS[*:3])N[*:1]; X3 = O=C(Cc1c[nH]c2ccccc12)*; Me3Gly = C[N+](C)(C)CC(=O)*; X6 = O=C(c1ccc2nc[nH]c2c1)*; X12 = Cc1nc2ccccn2c1C(=O)*; Isovaleryl = CC(C)CC(=O)*; MeOSuc = COC(=O)CCC(=O)*; X1 = O=C(/C=C/c1ccccc1)*; X16 = Cc1cc(C(=O)*)ccc1O; 2Furoyl = O=C(c1ccco1)*; X17 = O=C(c1ccc(Br)o1)*; Dap = NC[C@H](N)C(=O)O; X15 = O=C(c1cc[nH]n1)*; Bz = O=C(c1ccccc1)*; Mpa = O=C(O)CCS
# Molecular target: MDM2 (Homo sapiens, UniProt Q00987)
# Sequence (Q00987 whole entry): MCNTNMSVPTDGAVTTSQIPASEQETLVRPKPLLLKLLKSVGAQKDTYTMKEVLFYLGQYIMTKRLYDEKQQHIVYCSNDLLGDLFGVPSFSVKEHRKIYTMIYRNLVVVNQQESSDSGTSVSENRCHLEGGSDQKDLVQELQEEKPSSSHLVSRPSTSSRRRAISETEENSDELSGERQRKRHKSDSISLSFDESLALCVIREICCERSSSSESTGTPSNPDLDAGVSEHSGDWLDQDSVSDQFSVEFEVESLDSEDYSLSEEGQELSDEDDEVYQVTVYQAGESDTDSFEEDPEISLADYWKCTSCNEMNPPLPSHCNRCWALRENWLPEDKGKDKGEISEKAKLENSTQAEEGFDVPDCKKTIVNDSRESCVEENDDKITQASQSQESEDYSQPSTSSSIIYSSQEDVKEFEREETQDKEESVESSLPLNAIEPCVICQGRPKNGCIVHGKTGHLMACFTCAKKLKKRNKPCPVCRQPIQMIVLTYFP
# Assay: MDM2 binding screen: displacement of fluorescent p53 peptide probe FP53 (fluorescence polarization)
# Conditions: 10 µM macrocycle concentration; crude acylated macrocycle (scaffold Mpa-AA1-AA2-AA3 x carboxylic acid); p53-based fluorescent peptide, human MDM2
# How it was run: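 Macrocycle reaction products at a final 10 µM were tested for displacement of a p53-based fluorescent peptide from human MDM2. Fluorescence anisotropy (ex 485/em 535 nm) was read once per macrocycle at 25 °C.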
row,fraction fluorescent probe displaced,SMILES
1,-0.005048,O=C(NC[C@@H]1NC(=O)[C@@H]2CCCN2C(=O)CCSSCCNC(=O)[C@H](Cc2c[nH]c3ccccc23)NC1=O)c1ccccc1 [X-B1-D3-W + A1] ([Mpa]P[Dap](Bz)W-Cysteamide; disulfide 1-C)
2,0.05625,O=C(NC[C@@H]1NC(=O)[C@@H]2CCCN2C(=O)CCSSCCNC(=O)[C@H](Cc2c[nH]c3ccccc23)NC1=O)c1cc[nH]n1 [X-B1-D3-W + A5] ([Mpa]P[Dap](X15)W-Cysteamide; disulfide 1-C)
3,0.2779,O=C(NC[C@@H]1NC(=O)[C@@H]2CCCN2C(=O)CCSSCCNC(=O)[C@H](Cc2c[nH]c3ccccc23)NC1=O)c1ccc2nc[nH]c2c1 [X-B1-D3-W + A6] ([Mpa]P[Dap](X6)W-Cysteamide; disulfide 1-C)
4,0.05096,CC(=O)NC[C@@H]1NC(=O)[C@@H]2CCCN2C(=O)CCSSCCNC(=O)[C@H](Cc2c[nH]c3ccccc23)NC1=O [X-B1-D3-W + A7] ([Mpa]P[Dap](Ac)W-Cysteamide; disulfide 1-C)
5,0.2362,COc1ccc(C(=O)NC[C@@H]2NC(=O)[C@@H]3CCCN3C(=O)CCSSCCNC(=O)[C@H](Cc3c[nH]c4ccccc34)NC2=O)cn1 [X-B1-D3-W + A10] ([Mpa]P[Dap](Nicotinoyl(6-OMe))W-Cysteamide; disulfide 1-C)
6,0.1189,O=C(Cc1c[nH]c2ccccc12)NC[C@@H]1NC(=O)[C@@H]2CCCN2C(=O)CCSSCCNC(=O)[C@H](Cc2c[nH]c3ccccc23)NC1=O [X-B1-D3-W + A12] ([Mpa]P[Dap](X3)W-Cysteamide; disulfide 1-C)
7,0.1956,O=C(COc1ccccc1)NC[C@@H]1NC(=O)[C@@H]2CCCN2C(=O)CCSSCCNC(=O)[C@H](Cc2c[nH]c3ccccc23)NC1=O [X-B1-D3-W + A13] ([Mpa]P[Dap](Phenoxyacetyl)W-Cysteamide; disulfide 1-C)
8,0.1687,O=C(NC[C@@H]1NC(=O)[C@@H]2CCCN2C(=O)CCSSCCNC(=O)[C@H](Cc2c[nH]c3ccccc23)NC1=O)c1ccc(Cl)s1 [X-B1-D3-W + A14] ([Mpa]P[Dap](2Thenoyl(5-Cl))W-Cysteamide; disulfide 1-C)
9,0.06294,O=C(NC[C@@H]1NC(=O)[C@@H]2CCCN2C(=O)CCSSCCNC(=O)[C@H](Cc2c[nH]c3ccccc23)NC1=O)c1ccco1 [X-B1-D3-W + A16] ([Mpa]P[Dap](2Furoyl)W-Cysteamide; disulfide 1-C)
10,0.2671,O=C(NC[C@@H]1NC(=O)[C@@H]2CCCN2C(=O)CCSSCCNC(=O)[C@H](Cc2c[nH]c3ccccc23)NC1=O)c1cccc(Cl)c1 [X-B1-D3-W + A17] ([Mpa]P[Dap](Benzoyl(3-Cl))W-Cysteamide; disulfide 1-C)
11,-0.006211,O=C(NC[C@@H]1NC(=O)[C@@H]2CCCN2C(=O)CCSSCCNC(=O)[C@H](Cc2c[nH]c3ccccc23)NC1=O)c1cccc(C(F)(F)F)c1 [X-B1-D3-W + A18] ([Mpa]P[Dap](Benzoyl(3-CF3))W-Cysteamide; disulfide 1-C)
12,0.1429,O=C(NC[C@@H]1NC(=O)[C@@H]2CCCN2C(=O)CCSSCCNC(=O)[C@H](Cc2c[nH]c3ccccc23)NC1=O)c1cccc(S(F)(F)(F)(F)F)c1 [X-B1-D3-W + A19] ([Mpa]P[Dap](X11)W-Cysteamide; disulfide 1-C)
13,0.2551,O=C(NC[C@@H]1NC(=O)[C@@H]2CCCN2C(=O)CCSSCCNC(=O)[C@H](Cc2c[nH]c3ccccc23)NC1=O)c1ccc(Br)o1 [X-B1-D3-W + A21] ([Mpa]P[Dap](X17)W-Cysteamide; disulfide 1-C)
14,0.2195,O=C(NC[C@@H]1NC(=O)[C@@H]2CCCN2C(=O)CCSSCCNC(=O)[C@H](Cc2c[nH]c3ccccc23)NC1=O)c1ccc(Cl)cc1 [X-B1-D3-W + A25] ([Mpa]P[Dap](Benzoyl(4-Cl))W-Cysteamide; disulfide 1-C)
15,0.1229,O=C(NC[C@@H]1NC(=O)[C@@H]2CCCN2C(=O)CCSSCCNC(=O)[C@H](Cc2c[nH]c3ccccc23)NC1=O)c1cccc(O)c1 [X-B1-D3-W + A27] ([Mpa]P[Dap](Benzoyl(3-OH))W-Cysteamide; disulfide 1-C)
16,0.08563,Cc1cc(C(=O)NC[C@@H]2NC(=O)[C@@H]3CCCN3C(=O)CCSSCCNC(=O)[C@H](Cc3c[nH]c4ccccc34)NC2=O)ccc1O [X-B1-D3-W + A30] ([Mpa]P[Dap](X16)W-Cysteamide; disulfide 1-C)
17,0.1099,O=C(/C=C/c1ccccc1)NC[C@@H]1NC(=O)[C@@H]2CCCN2C(=O)CCSSCCNC(=O)[C@H](Cc2c[nH]c3ccccc23)NC1=O [X-B1-D3-W + A91] ([Mpa]P[Dap](X1)W-Cysteamide; disulfide 1-C)

# The next lines start with the compound.
row,SMILES,fraction fluorescent probe displaced
1,NC[C@@H]1NC(=O)[C@@H]2CCCN2C(=O)CCSSCCNC(=O)[C@H](Cc2ccccc2)NC1=O [X-B1-D3-F + No Acid] ([Mpa]P[Dap]F-Cysteamide; disulfide 1-C),0.01749
2,O=C(NC[C@@H]1NC(=O)[C@@H]2CCCN2C(=O)CCSSCCNC(=O)[C@H](Cc2c[nH]c3ccccc23)NC1=O)c1cnccn1 [X-B1-D3-W + A2] ([Mpa]P[Dap](Pyrazinecarbonyl)W-Cysteamide; disulfide 1-C),0.03807
3,Cc1cc(C(=O)NC[C@@H]2NC(=O)[C@@H]3CCCN3C(=O)CCSSCCNC(=O)[C@H](Cc3c[nH]c4ccccc34)NC2=O)no1 [X-B1-D3-W + A3] ([Mpa]P[Dap](Isoxazole3carbonyl(5-Me))W-Cysteamide; disulfide 1-C),0.08125
4,"COc1cc(OC)cc(C(=O)NC[C@@H]2NC(=O)[C@@H]3CCCN3C(=O)CCSSCCNC(=O)[C@H](Cc3c[nH]c4ccccc34)NC2=O)c1 [X-B1-D3-W + A4] ([Mpa]P[Dap](Benzoyl(3,5-diOMe))W-Cysteamide; disulfide 1-C)",0.03512
5,CC(C)CC(=O)NC[C@@H]1NC(=O)[C@@H]2CCCN2C(=O)CCSSCCNC(=O)[C@H](Cc2c[nH]c3ccccc23)NC1=O [X-B1-D3-W + A8] ([Mpa]P[Dap](Isovaleryl)W-Cysteamide; disulfide 1-C),0.1324
6,O=C(NC[C@@H]1NC(=O)[C@@H]2CCCN2C(=O)CCSSCCNC(=O)[C@H](Cc2c[nH]c3ccccc23)NC1=O)c1c[nH]c(=O)cn1 [X-B1-D3-W + A9] ([Mpa]P[Dap](Pyrazinoyl(5-oxo-4H))W-Cysteamide; disulfide 1-C),0.06006
7,O=C(NC[C@@H]1NC(=O)[C@@H]2CCCN2C(=O)CCSSCCNC(=O)[C@H](Cc2c[nH]c3ccccc23)NC1=O)c1c[nH]c(=O)[nH]c1=O [X-B1-D3-W + A11] ([Mpa]P[Dap](Isoorotoyl)W-Cysteamide; disulfide 1-C),0.1
8,"Cc1nnsc1C(=O)NC[C@@H]1NC(=O)[C@@H]2CCCN2C(=O)CCSSCCNC(=O)[C@H](Cc2c[nH]c3ccccc23)NC1=O [X-B1-D3-W + A15] ([Mpa]P[Dap](1,2,3Thiadiazole5CO(4-Me))W-Cysteamide; disulfide 1-C)",0.02409
9,O=C(NC[C@@H]1NC(=O)[C@@H]2CCCN2C(=O)CCSSCCNC(=O)[C@H](Cc2c[nH]c3ccccc23)NC1=O)c1cc2cc(Cl)ccc2[nH]1 [X-B1-D3-W + A39] ([Mpa]P[Dap](X5)W-Cysteamide; disulfide 1-C),0.06212
10,O=C(CCc1ccc(Cl)cc1)NC[C@@H]1NC(=O)[C@@H]2CCCN2C(=O)CCSSCCNC(=O)[C@H](Cc2c[nH]c3ccccc23)NC1=O [X-B1-D3-W + A42] ([Mpa]P[Dap](Propanoyl(3-(4-Cl-Ph)))W-Cysteamide; disulfide 1-C),0.05096
11,O=C(NC[C@@H]1NC(=O)[C@@H]2CCCN2C(=O)CCSSCCNC(=O)[C@H](Cc2c[nH]c3ccccc23)NC1=O)C1CCOCC1 [X-B1-D3-W + A44] ([Mpa]P[Dap](Tetrahydropyran4carbonyl)W-Cysteamide; disulfide 1-C),0.01122
12,O=C(Cc1ccc(Cl)cc1)NC[C@@H]1NC(=O)[C@@H]2CCCN2C(=O)CCSSCCNC(=O)[C@H](Cc2c[nH]c3ccccc23)NC1=O [X-B1-D3-W + A45] ([Mpa]P[Dap](Phenylacetyl(4-Cl))W-Cysteamide; disulfide 1-C),0.08387
13,Cc1nc2ccccn2c1C(=O)NC[C@@H]1NC(=O)[C@@H]2CCCN2C(=O)CCSSCCNC(=O)[C@H](Cc2c[nH]c3ccccc23)NC1=O [X-B1-D3-W + A61] ([Mpa]P[Dap](X12)W-Cysteamide; disulfide 1-C),0.006636
14,O=C(CN1CCOCC1)NC[C@@H]1NC(=O)[C@@H]2CCCN2C(=O)CCSSCCNC(=O)[C@H](Cc2c[nH]c3ccccc23)NC1=O [X-B1-D3-W + A63] ([Mpa]P[Dap](Morpholinoacetyl)W-Cysteamide; disulfide 1-C),0.03922
15,CC(C)CCC(=O)NC[C@@H]1NC(=O)[C@@H]2CCCN2C(=O)CCSSCCNC(=O)[C@H](Cc2c[nH]c3ccccc23)NC1=O [X-B1-D3-W + A68] ([Mpa]P[Dap](Pentanoyl(4-Me))W-Cysteamide; disulfide 1-C),-0.02228
16,CC(=O)NCC(=O)NC[C@@H]1NC(=O)[C@@H]2CCCN2C(=O)CCSSCCNC(=O)[C@H](Cc2c[nH]c3ccccc23)NC1=O [X-B1-D3-W + A83] ([Mpa]P[Dap]([Gly-Ac])W-Cysteamide; disulfide 1-C),0.1654
17,C[N+](C)(C)CC(=O)NC[C@@H]1NC(=O)[C@@H]2CCCN2C(=O)CCSSCCNC(=O)[C@H](Cc2c[nH]c3ccccc23)NC1=O [X-B1-D3-W + A92] ([Mpa]P[Dap](Me3Gly)W-Cysteamide; disulfide 1-C),-0.1286
18,COC(=O)CCC(=O)NC[C@@H]1NC(=O)[C@@H]2CCCN2C(=O)CCSSCCNC(=O)[C@H](Cc2c[nH]c3ccccc23)NC1=O [X-B1-D3-W + A93] ([Mpa]P[Dap](MeOSuc)W-Cysteamide; disulfide 1-C),0.1339
